Here are results for 5 compounds from patent US7163941B2, “Pyrido[2,3-d]pyrimidin-7-carboxylic acid derivatives, their manufacture and use as pharmaceutical agents” (Hoffmann-La Roche Inc., priority 2003, dated 2007).

Molecules are shown by their SMILES.

Usually IC50 stands for the concentration that inhibits the measured activity by half.

One assay deals with T1, Lck (p56^lck, active) (Homo sapiens, UniProt P06239).
T1 construct: purchased Upstate (UBI)
The assay can be described thus: SRC-Inhibitor-Assay (time-resolved fluorescence), Lck enzyme. In kind it is biochemical. The conditions noted are these: ATP 5 μM, peptide 10 μM, enzyme 2.5 U/ml, pre-incubation 15 min at 15° C.

Assay [1] addresses T2, Src (p60^c-src, partially purified) (Homo sapiens, UniProt P12931).
T2 construct: purchased Upstate (UBI)
The assay can be described thus: SRC-Inhibitor-Assay (time-resolved fluorescence), Src enzyme. In kind it is biochemical. The conditions noted are these: ATP 5 μM, peptide 10 μM, enzyme 2.5 U/ml, pre-incubation 15 min at 15° C.

T1 sequence (P06239 whole entry, species assumed): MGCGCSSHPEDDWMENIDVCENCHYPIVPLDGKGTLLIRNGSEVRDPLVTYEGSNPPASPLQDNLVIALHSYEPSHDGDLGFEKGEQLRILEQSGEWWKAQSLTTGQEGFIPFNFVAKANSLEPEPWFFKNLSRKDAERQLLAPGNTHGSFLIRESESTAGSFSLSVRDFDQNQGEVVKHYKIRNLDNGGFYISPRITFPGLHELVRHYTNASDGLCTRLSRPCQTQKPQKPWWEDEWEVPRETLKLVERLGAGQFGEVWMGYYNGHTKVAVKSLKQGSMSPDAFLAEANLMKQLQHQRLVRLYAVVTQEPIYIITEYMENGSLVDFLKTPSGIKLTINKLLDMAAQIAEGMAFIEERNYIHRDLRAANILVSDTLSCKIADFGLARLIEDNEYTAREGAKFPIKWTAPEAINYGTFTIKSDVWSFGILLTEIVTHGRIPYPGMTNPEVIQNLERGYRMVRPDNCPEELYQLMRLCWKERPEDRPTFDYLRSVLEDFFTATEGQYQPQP
T2 sequence (P12931 whole entry, species assumed): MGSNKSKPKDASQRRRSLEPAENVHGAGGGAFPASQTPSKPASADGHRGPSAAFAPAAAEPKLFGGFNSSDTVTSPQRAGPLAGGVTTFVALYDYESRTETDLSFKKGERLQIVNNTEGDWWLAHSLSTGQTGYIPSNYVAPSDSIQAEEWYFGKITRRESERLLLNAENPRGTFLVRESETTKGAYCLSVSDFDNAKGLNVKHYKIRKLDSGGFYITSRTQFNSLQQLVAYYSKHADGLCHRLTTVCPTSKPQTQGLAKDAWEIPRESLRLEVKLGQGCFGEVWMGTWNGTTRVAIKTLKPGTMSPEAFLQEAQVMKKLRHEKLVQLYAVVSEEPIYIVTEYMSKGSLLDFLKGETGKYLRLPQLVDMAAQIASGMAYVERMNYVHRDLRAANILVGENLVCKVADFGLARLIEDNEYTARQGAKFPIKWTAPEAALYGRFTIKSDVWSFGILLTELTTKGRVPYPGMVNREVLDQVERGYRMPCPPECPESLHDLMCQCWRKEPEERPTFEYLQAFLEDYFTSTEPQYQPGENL

On to `CCNCCOc1ccc(Nc2ncc3cc(-c4ccccc4Br)c(C#N)nc3n2)cc1` [Example 4-4, 6-(2-Bromo-phenyl)-2-[4-(2-ethylamino-ethoxy)-phenylamino]-pyrido[2,3-d]pyrimidine-7-carbonitrile], for which the half-inhibitory concentration (IC50) stood at 4.2 nM against Lck (p56^lck, active) and 1.1 nM in assay [1].

On to `O=C(NCCNc1ccccn1)c1nc2nc(Nc3ccc(F)cc3)ncc2cc1-c1ccccc1Br` [Example 3-36, 6-(2-Bromo-phenyl)-2-(4-fluoro-phenylamino)-pyrido[2,3-d]pyrimidine-7-carboxylic acid [2-(pyridin-2-ylamino)-ethyl]-amide], for which the IC50 against Lck (p56^lck, active) came out at 256 nM; in assay [1] it was 165 nM.

As to `C[S+]([O-])c1cccc(Nc2ncc3cc(-c4ccccc4Br)c(C#N)nc3n2)c1` (stereo not shown) [Example 4-5, 6-(2-Bromo-phenyl)-2-(3-methanesulfinyl-phenylamino)-pyrido[2,3-d]pyrimidine-7-carbonitrile], the IC50 against Lck (p56^lck, active) stood at 52.1 nM; in assay [1], 3.5 nM.

Regarding `CNS(=O)(=O)Cc1cccc(Nc2ncc3cc(-c4ccccc4Br)c(C(N)=O)nc3n2)c1` [Example 3-5, 6-(2-Bromo-phenyl)-2-(3-methylsulfamoylmethyl-phenylamino)-pyrido[2,3-d]pyrimidine-7-carboxylic acid amide], the 50% inhibitory concentration (IC50) on Lck (p56^lck, active) is 110 nM; in assay [1], 35.7 nM.

On to `O=C(Nc1cc[nH]n1)c1nc2nc(Nc3ccc(F)cc3)ncc2cc1-c1ccccc1Br` [Example 3-49, 6-(2-Bromo-phenyl)-2-(4-fluoro-phenylamino)-pyrido[2,3-d]pyrimidine-7-carboxylic acid (1H-pyrazol-3-yl)-amide], for which the IC50 amounted to 7.3 nM at Lck (p56^lck, active) and 4.3 nM in assay [1].
